PMC9194936, “Preclinical Activity and Pharmacokinetic/Pharmacodynamic Relationship for a Series of Novel Benzenesulfonamide Perforin Inhibitors” (ACS Pharmacology & Translational Science, 2022)
Where two headings read alike, the source gives them in different places.

Columns and labels:
[1] = test system: perforin-dependent cytotoxicity of KHYG-1 NK cells on K562 target cells; test: KHYG-1 cytotoxicity assay (51Cr-labeled K562 target cells); type: cell-based; settings: Homo sapiens
Experimental: (Table 1). […] An IC90 was used rather than an IC50 as we anticipated that elevated suppression of perforin activity is likely required to preserve the transplanted bone marrow stem cells in vivo.
The inhibition of the cytotoxic activity of KHYG-1 NK cells on K562 target cells was determined as described previously.[14] Briefly, compounds were added to KHYG-1 cells at 6–7 concentrations ranging from 20 μM to 312.5 nM in 2-fold dilutions in RPMI medium (Thermo Fisher Scientific, Waltham, MA) supplemented with 0.1% bovine serum albumin (BSA; Sigma-Aldrich, St. Louis, MO) for 20 min. ^51Cr-labeled K562 leukemia target cells were added to KHYG-1 cells at an effector/target ratio of 2:1 and incubated at 37 °C for 4 h. ^51Cr release was assayed using a Harvesting Press (Skatron Instruments, Lier, Norway), and radioactivity was estimated on a Wallac Wizard 1470 Automatic γ counter (Turku, Finland). The IC90 values were calculated by fitting a four-parameter logistic sigmoidal dose–response curve to the data using Prism version 8 (GraphPad, San Diego, CA). Each IC90 value represents the mean of at least three independent experiments, where six to seven concentrations were tested in triplicate for each compound.

[2] = Mouse plasma pharmacokinetics; type: in vivo; settings: for AUC(0-t): read-out: AUC0–24
Experimental: Male C57BL/6 mice (18–25 g) were supplied and housed under controlled temperature and humidity at the Vernon Jansen Unit of the University of Auckland. The mice had access to a pelleted diet and water ad libitum. All animal experimentation followed protocols approved by the University of Auckland Animal Ethics Committee (approval #001781). Dosing solutions were prepared in 20% hydroxypropyl-β-cyclodextrin (Sigma-Aldrich). The mice received one to three doses by intraperitoneal route and were euthanised at predetermined time points (n = 3 mice per time point at 0.083, 0.25, 0.5, 1, 2, 4, 6, and 24 h for 10 mg/kg 1 and 7; 0.5, 1, 2, 6, and 24 h for 80 and 160 mg/kg 1; and 1, 6, and 24 h for 120 mg/kg 1). Blood samples (∼300 μL) were obtained through cardiac bleed and collected in ice-cold K2-EDTA tubes (BD, Franklin Lakes, NJ). Plasma was separated by centrifugation at 6500 rpm for 5 min and stored at −80 °C. On the day of analysis, plasma samples were thawed on ice and the analytes were extracted by mixing 10 μL of aliquots with four volumes of ice-cold acetonitrile/methanol (1:1 v/v) containing internal standard. The samples were kept on ice for 10 min to ensure complete protein precipitation, vortexed for 2 min, and centrifuged at 13 000 rpm for 5 min at room temperature. The clear supernatant was then diluted (1:1 v/v) with 40 μL of 0.01% formic acid in Milli-Q water prior to analysis by LC-MS/MS.
Compound concentration in biological matrices was measured by LC-MS/MS using a 6410b triple-quadrupole mass spectrometer (Agilent, Santa Clara) equipped with a multimode ionization source. The optimized mass detector conditions, namely, ionization polarity, precursor product ions, fragmentor voltage, and collision energy, were manually determined by infusing a 5 μM solution of the pure compound into the ion source. Chromatographic separation was achieved using a Zorbax SB-C18, 50 × 2.1 mm^2, 5 μm column (Agilent), and an Agilent 1100 series HPLC system. The mobile phase used was (A) 0.01% formic acid in Milli-Q water and (B) 80% acetonitrile containing 0.01% formic acid in ultrapure water at a flow rate of 0.6 mL/min. A gradient elution was used over 5 min, and the flow rate was maintained at 0.6 mL/min throughout the gradient. The column oven temperature and the autosampler temperature were set to 35 and 4 °C, respectively. […] The instrument multimode source parameters were set as follows: gas temperature, 325 °C; vaporizer, 250 °C; gas flow, 5 L/min; and nebulizer, 45 psi. The ion spray voltage was set at 3000 V. Detection of the compounds was carried out in multiple reaction monitoring mode by monitoring the m/z transitions of precursor to selective product ion. For each compound, fragmentor voltage and collision energy were optimized to achieve maximum abundance. Quadrupoles Q1 and Q3 were set to unit resolution.
Test samples were diluted up to 100-fold in blank plasma as necessary and quantitated against a calibration curve of known analyte concentrations ranging from 3 nM to 30 μM in an appropriate matrix and quality controls at 0.03, 0.3, 3, and 30 μM. Pharmacokinetic parameters were evaluated using noncompartmental analysis and pharmacokinetic simulations using one-compartment analysis on Phoenix WinNonlin version 6.2 (Certara, Princeton, NJ). Multiple-dose simulations were generated from parameters derived from single-dose simulations.

[3] = test system: recombinant perforin; design: method as in PMID 28582670, PMID 28110869; settings: lytic activity of recombinant perforin against Jurkat T leukemia cells; cited from earlier work
[4] = concentration inhibiting 90% of perforin-dependent cytotoxicity, K562 targets, effector/target 2:1, 4 h, RPMI 0.1% BSA, read-out: KHYG-1 IC90
[5] = male, C57BL/6, ip, mouse plasma, 10 mg/kg intraperitoneal
[6] = male, mouse, ip, 80 mg/kg single i.p. dose, C57BL/6 mice, plasma
[7] = male, mouse, ip, 120 mg/kg single i.p. dose, C57BL/6 mice, plasma
[8] = male, mouse, ip, 160 mg/kg single i.p. dose, C57BL/6 mice, plasma

Work on O=C1NCc2ccc(-c3ccc(-c4cncc(NS(=O)(=O)c5ccc(F)cc5F)c4)s3)cc21 [Compound 7, 2,4-difluoro-N-{5-[5-(3-oxo-2,3-dihydro-1H-isoindol-5-yl)-2-thienyl]-3-pyridinyl}benzenesulfonamide] yielded an IC90 [1, 4] of 28.9 ± 6.7 µM, an AUC [2, 5] of 1220 µM·h and a Cmax [2, 5] of 235 µM. For the same compound, the half-life ([2]; male, C57BL/6, ip, mouse plasma, 10 mg/kg intraperitoneal, read-out: T1/2 (converted)) was 4.1 h and the IC50 [3] was 4.15 µM.

For CN1Cc2cc(-c3ccc(-c4cncc(NS(=O)(=O)c5ccccc5[N+](=O)[O-])c4)s3)ccc2C1=O [Compound 1, N-{5-[5-(2-methyl-1-oxo-2,3-dihydro-1H-isoindol-5-yl)-2-thienyl]-3-pyridinyl}-2-nitrobenzenesulfonamide], the IC90 ([1]; KHYG-1, estimated from IC90 5.37 μM and media free fraction 0.144, read-out: unbound in vitro IC90 in KHYG-1 cells) was 0.77 µM, the IC90 [1, 4] was 5.37 ± 1.1 µM and the Cmax ([2]; 10 mg/kg single i.p. dose, C57BL/6 mice, plasma) was 105 µM. It also gave a half-life ([2]; male, C57BL/6, mouse, plasma, intraperitoneal, across the dose levels 160, 120, 80 and 10 mg/kg, read-out: elimination half-life) of 2.4 to 3.4 h, an AUC(0-t) ([2]; male, mouse, ip, 10 mg/kg single i.p. dose, C57BL/6 mice, plasma) of 413 µM·h and a half-life ([2]; male, mouse, ip, 10 mg/kg single i.p. dose, C57BL/6 mice, plasma, read-out: T1/2 (converted)) of 2.38 h. It also gave a Cmax [2, 6] of 782 µM, an AUC(0-t) [2, 6] of 5440 µM·h and a half-life ([2]; male, mouse, ip, 80 mg/kg single i.p. dose, C57BL/6 mice, plasma, read-out: T1/2 (converted)) of 2.85 h. It also gave a Cmax [2, 7] of 1030 µM, an AUC(0-t) [2, 7] of 7320 µM·h and a half-life ([2]; male, mouse, ip, 120 mg/kg single i.p. dose, C57BL/6 mice, plasma, read-out: T1/2 (converted)) of 2.85 h. The Cmax [2, 8] was 1190 µM, the AUC(0-t) [2, 8] was 8940 µM·h and the half-life ([2]; male, mouse, ip, 160 mg/kg single i.p. dose, C57BL/6 mice, plasma, read-out: T1/2 (converted)) was 3.36 h. The IC50 [3] was 6.65 µM.
